ChEMBL document CHEMBL1201862, “PubChem BioAssay data set” (2004)
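Dose response: 5 concentrations. Exposure: 48 h. Format: 96-well plates. Endpoint: linear interpolation; highest concentration if not reached. Abbreviation: GI50, concentration required for 50% inhibition of growth.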 Active and inactive are the calls of the source. Rule as the data show it: active = GI50 up to about 1.1 µM and inactive = higher.

Key:
Assay in all cases: NCI-60 cell line screen, 48 h
NCI-H23 = test system: NCI-H23
HL-60 = test system: HL-60
NCI/ADR-RES = test system: NCI/ADR-RES
NCI-H226 = test system: NCI-H226
SF-295 = test system: SF-295
MDA-MB-435 = test system: MDA-MB-435
A549 = test system: A549
OVCAR-3 = test system: OVCAR-3
RXF 393 = test system: RXF 393
UACC-62 = test system: UACC-62
OVCAR-5 = test system: OVCAR-5
A498 = test system: A498
SF-539 = test system: SF-539
PC-3 = test system: PC-3
SK-MEL-2 = test system: SK-MEL-2
HT-29 = test system: HT-29
TK-10 = test system: TK-10
MOLT-4 = test system: MOLT-4
Malme-3M = test system: Malme-3M
COLO 205 = test system: COLO 205
HCT-116 = test system: HCT-116
MCF7 = test system: MCF7
OVCAR-8 = test system: OVCAR-8
HOP-92 = test system: HOP-92
KM12 = test system: KM12
ACHN = test system: ACHN
MDA-MB-231 = test system: MDA-MB-231
Hs-578T = test system: Hs-578T
NCI-H460 = test system: NCI-H460
DU-145 = test system: DU-145
SK-MEL-28 = test system: SK-MEL-28
U-251 = test system: U-251
NCI-H522 = test system: NCI-H522
SK-OV-3 = test system: SK-OV-3
IGROV-1 = test system: IGROV-1
HOP-62 = test system: HOP-62
LOX IMVI = test system: LOX IMVI
HCC 2998 = test system: HCC 2998
786-0 = test system: 786-0
M14 = test system: M14
CCRF-CEM = test system: CCRF-CEM
SN12C = test system: SN12C
CAKI-1 = test system: CAKI-1
HCT-15 = test system: HCT-15
EKVX = test system: EKVX
OVCAR-4 = test system: OVCAR-4
SK-MEL-5 = test system: SK-MEL-5
UACC-257 = test system: UACC-257
K562 = test system: K562
SNB-75 = test system: SNB-75
SNB-19 = test system: SNB-19
SF-268 = test system: SF-268
T47D = test system: T47D
BT-549 = test system: BT-549
SW-620 = test system: SW-620
RPMI-8226 = test system: RPMI-8226
UO-31 = test system: UO-31

CC1=NOC(C)(O)/C1=N/O (configuration not stated)
GI50 (NCI-H23): > 100 µM (inactive)
GI50 (HL-60): > 100 µM (inactive)
GI50 (NCI/ADR-RES): > 100 µM (inactive)
GI50 (NCI-H226): > 100 µM (inactive)
GI50 (SF-295): > 100 µM (inactive)
GI50 (MDA-MB-435): > 100 µM (inactive)
GI50 (A549): > 100 µM (inactive)
GI50 (OVCAR-3): > 100 µM (inactive)
GI50 (RXF 393): > 100 µM (inactive)
GI50 (UACC-62): > 100 µM (inactive)
GI50 (OVCAR-5): > 100 µM (inactive)
GI50 (A498): > 100 µM (inactive)
GI50 (SF-539): > 100 µM (inactive)
GI50 (PC-3): > 100 µM (inactive)
GI50 (SK-MEL-2): > 100 µM (inactive)
GI50 (HT-29): > 100 µM (inactive)
GI50 (TK-10): > 100 µM (inactive)
GI50 (MOLT-4): > 100 µM (inactive)
GI50 (Malme-3M): > 100 µM (inactive)
GI50 (COLO 205): > 100 µM (inactive)
GI50 (HCT-116): > 100 µM (inactive)
GI50 (MCF7): > 100 µM (inactive)
GI50 (OVCAR-8): > 100 µM (inactive)
GI50 (HOP-92): > 100 µM (inactive)
GI50 (KM12): > 100 µM (inactive)
GI50 (ACHN): > 100 µM (inactive)
GI50 (MDA-MB-231): > 100 µM (inactive)
GI50 (Hs-578T): > 100 µM (inactive)
GI50 (NCI-H460): > 100 µM (inactive)
GI50 (DU-145): > 100 µM (inactive)
GI50 (SK-MEL-28): > 100 µM (inactive)
GI50 (U-251): > 100 µM (inactive)
GI50 (NCI-H522): > 100 µM (inactive)
GI50 (SK-OV-3): > 100 µM (inactive)
GI50 (IGROV-1): > 100 µM (inactive)
GI50 (HOP-62): > 100 µM (inactive)
GI50 (LOX IMVI): > 100 µM (inactive)
GI50 (HCC 2998): > 100 µM (inactive)
GI50 (786-0): > 100 µM (inactive)
GI50 (M14): > 100 µM (inactive)
GI50 (CCRF-CEM): > 100 µM (inactive)
GI50 (SN12C): > 100 µM (inactive)
GI50 (CAKI-1): > 100 µM (inactive)
GI50 (HCT-15): > 100 µM
GI50 (EKVX): > 100 µM (inactive)
GI50 (OVCAR-4): > 100 µM (inactive)
GI50 (SK-MEL-5): > 100 µM (inactive)
GI50 (UACC-257): > 100 µM (inactive)
GI50 (K562): > 100 µM (inactive)
GI50 (SNB-75): > 100 µM (inactive)
GI50 (SNB-19): > 100 µM (inactive)
GI50 (SF-268): > 100 µM (inactive)
GI50 (T47D): > 100 µM (inactive)
GI50 (BT-549): > 100 µM (inactive)
GI50 (SW-620): > 100 µM (inactive)
GI50 (RPMI-8226): > 100 µM (inactive)
GI50 (UO-31): > 100 µM (inactive)
